Measurements: US4772551A (priority 1985, dated 1988)

How the values were obtained:
[1] = molecular target: T-2 reactive monoclonal antibody; type: binding, murine
[2] = tested on: polyclonal antibodies produced to aflatoxin B1 and ochratoxin A; conditions: cited from earlier work

Row | Structure (SMILES) | 50% Inhibition (concentration required to inhibit binding of antibody by 50%) [1] | Minimal Inhibition (concentration required for first significant inhibition of binding of antibody) [1] | cross reaction with T-2 monoclonal antibody [1] | reactivity relative to T-2 [1] | sensitivity [2]
1 | CC(=O)OC[C@]12C[C@H](OC(=O)CC(C)(C)O)C(C)=C[C@H]1O[C@@H]1[C@H](O)[C@@H](O)[C@@]2(C)[C@]12CO2 [3'OH HT-2] | 0.100 µg/mL | 0.05 µg/mL | – | – | –
2 | CC(=O)OC[C@]12C[C@H](OC(=O)CC(C)(C)O)C(C)=C[C@H]1O[C@@H]1[C@H](O)[C@@H](OC(C)=O)[C@@]2(C)[C@]12CO2 [3'OH T-2] | 0.018 µg/mL | 0.005 µg/mL | – | – | –
3 | CC(=O)OC[C@]12C[C@H](OC(=O)CC(C)C)C(C)=C[C@H]1O[C@@H]1[C@H](OC(C)=O)[C@@H](OC(C)=O)[C@@]2(C)[C@]12CO2 [Acetyl T-2] | 0.094 µg/mL | 0.01 µg/mL | strong cross reaction | – | –
4 | CC1=C[C@H]2O[C@@H]3[C@H](O)C[C@](C)([C@@]2(CO)[C@H](O)C1=O)[C@]31CO1 [Deoxynivalanol] | > 1000. ug/ml | > 1000. ug/ml | – | – | –
5 | CC(=O)OC[C@]12C[C@H](OC(=O)CC(C)C)C(C)=C[C@H]1O[C@@H]1[C@H](O)[C@@H](O)[C@@]2(C)[C@]12CO2 [HT-2] | 1.0 µg/mL | 0.5 µg/mL | relatively weak cross-reaction | 2% | –
6 | CC(=O)OC[C@]12C[C@H](O)C(C)=C[C@H]1O[C@@H]1[C@H](O)[C@@H](OC(C)=O)[C@@]2(C)[C@]12CO2 [Neosolaniol] | 1.6 µg/mL | 1.0 µg/mL | – | – | –
7 | CC1=C[C@H]2O[C@@H]3[C@H](O)[C@@H](O)[C@](C)([C@@]2(CO)C[C@@H]1OC(=O)CC(C)C)[C@]31CO1 [T-2 triol] | 14.9 µg/mL | 5.0 µg/mL | – | – | –
8 | CC(=O)OC[C@]12C[C@H](OC(=O)CC(C)C)C(C)=C[C@H]1O[C@@H]1[C@H](OC(=O)CCC(=O)O)[C@@H](OC(C)=O)[C@@]2(C)[C@]12CO2 [T-2HS, T-2-hemisuccinate] | 0.072 µg/mL | 0.01 µg/mL | – | – | –
9 | C[C@@H]1Cc2c(Cl)cc(C(=O)N[C@@H](Cc3ccccc3)C(=O)O)c(O)c2C(=O)O1 [ochratoxin A] | – | – | – | – | 5-10 ppb
